Experimental data reported in patent US20080181971A1, “Combination Cancer Treatments Comprising Elsamitrucin and Other Agents” (priority 2007, published 2008).
Read-outs that look alike come from different tables or passages of the source.

Assays:
Type in all cases: cell-based
[1] = system: HT29 human colon carcinoma cell line; experiment: MTT growth inhibition assay, single agents and fixed-ratio combinations with elsamitrucin (Chou-Talalay, CalcuSyn), HT29
Description: (§1) These individual agents and their combinations were evaluated for in vitro activity against the HT29 colon carcinoma, SKMES non-small cell lung carcinoma, and Daudi B-lymphoblastic cell lines. Cell growth in 96-well microculture plates was determined with a semi-automated MTT assay. Efficacies of drug combinations were analyzed according to the methods of Chou and Talalay, utilizing CalcuSyn software. Twenty-one in vitro experiments were conducted to determine the individual and combined growth inhibitory activities of elsamitrucin and the ten selected agents in the three cell lines.
(§2) b. Cell Lines. The human HT29 colon carcinoma, SKMES non-small cell lung carcinoma, and Daudi B-lymphoblastic cell lines were originally obtained from ATCC (American Type Culture Collection). These cell lines have been maintained and stored as frozen stocks. […] The medium for Daudi cells was additionally supplemented with 1 mM sodium pyruvate.
(§3) c. Growth Inhibition Assay. Anti-proliferative activities against the HT29, SKMES, and Daudi cell lines were evaluated in vitro by the MTT assay. Cells (1,500-2,000 cells/well) were seeded in a 96-well microculture plate in 180 pL of medium/well. […] DMSO was present in all wells at a final concentration of 0.1%. […] When the appropriate cell density was attained in the control wells, the plates were centrifuged briefly, and 100 pL of the growth medium was removed. The cell cultures were incubated with 50 μL of MTT reagent (1 mg/mL in Dulbecco's phosphate-buffered saline) for 4 hr at 37° C. The resultant purple formazan precipitate was solubilized with 200 μL of 0.04 N HCl in isopropanol.
(§4) The results of each experiment were stored in Excel format.
(§5) d. Preliminary Experiments: Design and Data Analysis. […] The initial experiments utilized serial three-fold dilutions of the drugs to produce ten test concentrations over a broad concentration range. Based on the initial results, a narrower concentration range was selected, and serial 1:1.5 dilutions were utilized to produce ten test concentrations. Experiments were repeated as needed.
(§6) For assays that utilized lower dilution factors to produce narrower concentration ranges, the results were analyzed with both Prism and CalcuSyn (as described below) to allow comparison of the IC50 and Da, values. The results guided the selection of appropriate concentration ranges and concentration ratios for the combination experiments.
(§7) e. Combination Experiments: Design and Data Analysis. The fixed-ratio design of Chou was used for the combination experiments. For each experiment, the drug solutions were mixed at a ratio that was expected to provide approximately equipotent concentrations, and the mixture was serially diluted with medium containing 1% DMSO to yield 10× stock solutions of the test concentrations. […] Each agent was tested individually and in combination at seven concentrations. The concentration range selected for each assay was designed to bracket the concentrations that produced half-maximal effects (ED50) with each single agent and their mixture. The concentrations used for the single-drug assays were twice as high as their concentrations in the mixture. Each assay was performed in quadruplicate. For each drug combination, the individual agents and their mixture were assayed on the same 96-well plate. The effects of the individual drugs and their combinations were analyzed by the method of Chou and Talalay. The results of each experiment were entered into CalcuSyn (BIOSOFT) for dose-effect analysis.
(§8) where Acontrol and Adrug are the respective absorbances of vehicle control and drug-treated wells in the MIT assay.
(§9) where the slope, m, is related to the sigmoidicity of the dose-effect curve, with m=1, >1, and <1 indicating hyperbolic, sigmoidal, and reverse sigmoidal shapes, respectively.

[2] = system: SKMES human non-small cell lung carcinoma cell line; experiment: MTT growth inhibition assay, single agents and fixed-ratio combinations with elsamitrucin (Chou-Talalay, CalcuSyn), SKMES; conditions: for IC50: Homo sapiens
Description: as §1, §2, §3, §4, §5, §6, §7, §8, §9

[3] = system: Daudi human lymphoma cell line; experiment: MTT growth inhibition assay, single agents and fixed-ratio combinations with elsamitrucin (Chou-Talalay, CalcuSyn), Daudi; conditions: Homo sapiens, Daudi
Description: as §1, §2, §3, §4, §5, §6, §7, §8, §9

[4] = HT29, single agent on the same plate as the combination, read-out: Dm Value, Individually, Second Agent
[5] = Homo sapiens, HT-29, SPA-01 (HT29-e21), single agent, dilution 1:3, read-out: Prism IC50
[6] = Homo sapiens, HT-29, SPA-04 (HT29-e22), single agent, dilution 1:1.5, read-out: CalcuSyn Dm
[7] = Homo sapiens, HT-29, SPA-04 (HT29-e22), single agent, dilution 1:1.5, read-out: Prism IC50
[8] = Homo sapiens, HT-29, average of preliminary single-agent experiments, HT29, read-out: Average IC50, Dm value
[9] = SKMES growth inhibition, second agent alone, one value per plate (Experiment ID), read-out: Dm Value (95% Confidence Interval), Individually, Second Agent
[10] = SKMES, single agent on the same plate as the combination, read-out: Dm Value, Individually, Second Agent
[11] = SPA-02 (SKMES-e22), single agent, dilution 1:3, read-out: Prism IC50
[12] = SPA-03 (SKMES-e23), single agent, dilution 1:1.5, read-out: CalcuSyn Dm
[13] = SPA-03 (SKMES-e23), single agent, dilution 1:1.5, read-out: Prism IC50
[14] = SPA-09 (SKMES-e25), single agent, dilution 1:1.5, read-out: CalcuSyn Dm
[15] = SPA-09 (SKMES-e25), single agent, dilution 1:1.5, read-out: Prism IC50
[16] = average of preliminary single-agent experiments, SKMES, read-out: Average IC50, Dm value
[17] = Daudi growth inhibition, second agent alone, one value per plate, Table 8 (Supplement), read-out: Dm Value (95% Confidence Interval), Individually, Second Agent
[18] = Daudi growth inhibition, second agent alone, Table 8, read-out: Dm Value (95% Confidence Interval), Individually, Second Agent
[19] = SPA-05 (Daudi-e01), single agent, dilution 1:3, read-out: Prism IC50
[20] = SPA-08 (Daudi-e02), single agent, dilution 1:1.5, read-out: CalcuSyn Dm
[21] = SPA-08 (Daudi-e02), single agent, dilution 1:1.5, read-out: Prism IC50
[22] = SPA-15 (Daudi-e03), single agent, dilution 1:1.5 (elsamitrucin 1:1.33), read-out: CalcuSyn Dm
[23] = SPA-15 (Daudi-e03), single agent, dilution 1:1.5 (elsamitrucin 1:1.33), read-out: Prism IC50
[24] = average of preliminary single-agent experiments, read-out: Average IC50, Dm value
[25] = read-out: approximate Dm values for the second drugs as single agents
[26] = Homo sapiens, HT-29, HT29, single agent on the same plate as the combination, read-out: Dm Value, Individually, Second Agent
[27] = Homo sapiens, HT-29, SPA-10 (HT29-e24), single agent, dilution 1:1.5, read-out: CalcuSyn Dm
[28] = Homo sapiens, HT-29, SPA-10 (HT29-e24), single agent, dilution 1:1.5, read-out: Prism IC50

Compound	IC50 [1, 5]	IC50 [1, 6]	IC50 [1, 7]	IC50 [1, 8]	IC50 [2, 9]	IC50 [2, 10]	IC50 [2, 11]	IC50 [2, 12]	IC50 [2, 13]	IC50 [2, 14]	IC50 [2, 15]	IC50 [2, 16]	IC50 [3, 17]	IC50 [3, 18]	IC50 [3, 19]	IC50 [3, 20]	IC50 [3, 21]	IC50 [3, 24]	IC50 [3, 25]	IC50 [1, 26]	other results
COc1cccc2c1C(=O)c1c(O)c3c(c(O)c1C2=O)C[C@@](O)(C(=O)CO)C[C@@H]3O[C@H]1C[C@H](N)[C@H](O)[C@H](C)O1 [Doxorubicin, doxorubicin]	40 nM	57 nM	29 nM	42 nM	83 nM	56 nM	7 nM	~200 nM	~50 nM	21 nM	23 nM	17 nM	9 nM	9 nM	~1 nM	~33 nM	~9.5 nM	5 nM	~9 nM		IC50 [1, 4]: 48 nM; IC50 [3, 22]: 5 nM; IC50 [3, 23]: 5 nM
O=NN(CCCl)C(=O)NCCCl [Carmustine, carmustine]	> 10000 nM	60000 nM	72000 nM	66000 nM	69800 nM	69800 nM	1440 nM			~96000 nM	~78000 nM			42000 nM		25000 nM	28000 nM	24900 nM	~42000 nM		IC50 [1, 4]: 128000 nM; IC50 [3, 22]: 25800 nM; IC50 [3, 23]: 20800 nM
Nc1ccn([C@@H]2O[C@H](CO)[C@@H](O)C2(F)F)c(=O)n1 [Gemcitabine, gemcitabine]	4.6 nM		10 nM	5 nM	1.8 nM	2.8 nM	1.5 nM	1.8 nM	2.5 nM			2 nM	1.2 nM	1.2 nM	0.6 nM	1.3 nM	1.4 nM	1 nM	~1.2 nM	4 nM	IC50 [1, 27]: 6 nM; IC50 [1, 28]: 4 nM
CC[C@@]1(O)C(=O)OCc2c1cc1n(c2=O)Cc2cc3ccccc3nc2-1 [Camptothecin, camptothecin]	16 nM	26 nM	23 nM	153 nM	8 nM	8 nM	6 nM	11 nM	11 nM			9 nM	9.3 nM	9.3 nM	8.5 nM	11 nM	9.5 nM	10 nM	~9.3 nM		IC50 [1, 27]: 148 nM; IC50 [1, 28]: 550 nM; increase of Dm in the combination ([2]; SKMES, in combination with elsamitrucin versus single agent): less than 1.5 fold
CC(C)C[C@H](NC(=O)[C@H](Cc1ccccc1)NC(=O)c1cnccn1)B(O)O [Bortezomib, bortezomib]	12 nM	29 nM	23 nM	21 nM	24 nM	16 nM		21.5 nM	19.5 nM			21 nM	3.9 nM	3.9 nM	3.7 nM	3.4 nM	4 nM	4 nM	~3.9 nM	17.8 nM	
CN(Cc1cnc2nc(N)nc(N)c2n1)c1ccc(C(=O)N[C@@H](CCC(=O)O)C(=O)O)cc1 [Methotrexate, methotrexate]	25.4 nM	23 nM	18 nM	22 nM	12 nM	8.2 nM	~0.6 nM			9.5 nM	8.5 nM	10 nM	45 nM	45 nM	~20 nM	50 nM	49 nM	50 nM	~45 nM	22 nM	IC50 ([2]; SPA-14 (SKMES-e27), single agent, dilution 1:1.5 (carmustine also 1:2, r12), read-out: CalcuSyn Dm): 10.7 nM; IC50 ([2]; SPA-14 (SKMES-e27), single agent, dilution 1:1.5 (carmustine also 1:2, r12), read-out: Prism IC50): 10.4 nM
